This is an account of results in ChEMBL document CHEMBL4393707, “Synthesis and evaluation of new quinazolin-4(3H)-one derivatives as potent antibacterial agents against multidrug resistant Staphylococcus aureus and Mycobacterium tuberculosis” (Eur J Med Chem, 2019).

Converted amounts (≈) assume the structure as drawn.

Holding throughout (assay type): functional
The test system of one assay is Staphylococcus aureus. The experiment in a line: Antibacterial activity against Staphylococcus aureus ATCC 29213 incubated for 16 to 18 hrs by broth microdilution assay. For orientation: In broth dilution the organism is exposed to a series of concentrations in liquid medium.
The subject of another assay is Pseudomonas aeruginosa. The experiment in a line: Antibacterial activity against Pseudomonas aeruginosa ATCC 27853 incubated for 16 to 18 hrs by broth microdilution assay.
The next assay relates to Escherichia coli. The assay is described as follows: Antibacterial activity against Escherichia coli ATCC 25922 incubated for 16 to 18 hrs by broth microdilution assay.
The test system of a further assay is Acinetobacter baumannii. The experiment in a line: Antibacterial activity against Acinetobacter baumannii BAA1605 incubated for 16 to 18 hrs by broth microdilution assay.
In a further assay the test system is Klebsiella pneumoniae. The assay is described as follows: Antibacterial activity against Klebsiella pneumoniae ATCC BAA-1705 incubated for 16 to 18 hrs by broth microdilution assay.
Assay [1] concerns Mycobacterium tuberculosis. The experiment in a line: Antitubercular activity against Mycobacterium tuberculosis H37Rv after 7 days by resazurin dye based assay. Conditions: 168 h. In general terms: The colour change of resazurin is a common sign of viable cells or microbes.

For orientation: MIC means the lowest concentration found to suppress growth. The low end stands for a more susceptible organism, the high end for a less susceptible organism. In the case of `Cc1cccc(-n2c(/C=C/c3ccc(C#N)cc3)nc3ncccc3c2=O)c1C`, the MIC (with Staphylococcus aureus; in the assay with Pseudomonas aeruginosa; against Escherichia coli; in the assay with Acinetobacter baumannii; against Klebsiella pneumoniae; in assay [1]) was greater than 64 µg/mL in each case.
Turning to `COc1ccc(-c2ccc3nc(C)n(-c4ccccc4)c(=O)c3c2)cc1`, the MIC with Staphylococcus aureus is 32 µg/mL (≈ 93.5 µM); with Pseudomonas aeruginosa it was greater than 64 µg/mL; in the assay on Escherichia coli, greater than 64 µg/mL; against Acinetobacter baumannii, greater than 64 µg/mL; in the assay with Klebsiella pneumoniae, greater than 64 µg/mL; in assay [1] it was greater than 64 µg/mL.
For `Cc1ccc(C)c(-n2c(/C=C/c3ccc(C#N)cc3)nc3ncccc3c2=O)c1`, the MIC (with Staphylococcus aureus; in the assay with Pseudomonas aeruginosa; against Escherichia coli; against Acinetobacter baumannii; against Klebsiella pneumoniae; in assay [1]) was greater than 64 µg/mL each time.
Take `N#Cc1ccc(/C=C/c2nc3ncccc3c(=O)n2Cc2ccc(F)cc2)cc1`: the MIC (in the assay with Staphylococcus aureus; in the assay on Pseudomonas aeruginosa; against Escherichia coli; in the assay on Acinetobacter baumannii; with Klebsiella pneumoniae; in assay [1]) was greater than 64 µg/mL throughout.
Molecule `CN(C)c1ccc(O)c2c1C[C@H]1C[C@H]3[C@H](N(C)C)C(O)=C(C(N)=O)C(=O)[C@@]3(O)C(O)=C1C2=O` [MINOCYCLINE] showed an MIC against Staphylococcus aureus of 0.125 µg/mL (≈ 0.273 µM).
Regarding `N#Cc1ccc(/C=C/c2nc3ccccc3c(=O)n2-c2cccc3ccccc23)cc1`, the MIC (in the assay on Staphylococcus aureus; in the assay on Pseudomonas aeruginosa; against Escherichia coli; with Acinetobacter baumannii; in the assay with Klebsiella pneumoniae; in assay [1]) was greater than 64 µg/mL in each case.
Consider `COc1ccc(-c2cn(-c3ccc4c(=O)n(-c5ccccc5)c(C)nc4c3)nn2)cc1`, for which the minimum inhibitory concentration (MIC) was greater than 64 µg/mL in the assay with Staphylococcus aureus; greater than 64 µg/mL with Pseudomonas aeruginosa; greater than 64 µg/mL against Escherichia coli; greater than 64 µg/mL against Acinetobacter baumannii; greater than 64 µg/mL against Klebsiella pneumoniae; 64 µg/mL (≈ 156 µM) in assay [1].
For the molecule `Cc1nc2cc(-n3cc(COc4ccc5nc(C)n(-c6ccccc6)c(=O)c5c4)nn3)ccc2c(=O)n1-c1ccccc1`, the MIC (against Staphylococcus aureus; against Pseudomonas aeruginosa; in the assay on Escherichia coli; in the assay with Acinetobacter baumannii; in the assay on Klebsiella pneumoniae; in assay [1]) was greater than 64 µg/mL throughout.
For the molecule `COc1ccc(-c2ccc3nc(/C=C/c4ccccc4)n(-c4ccccc4)c(=O)c3c2)cc1`, the minimum inhibitory concentration (MIC) is greater than 64 µg/mL against Staphylococcus aureus; greater than 64 µg/mL in the assay with Pseudomonas aeruginosa; greater than 64 µg/mL with Escherichia coli; greater than 64 µg/mL with Acinetobacter baumannii; greater than 64 µg/mL with Klebsiella pneumoniae; 64 µg/mL (≈ 149 µM) in assay [1].
In the assay with Staphylococcus aureus, GENTAMICIN yielded a minimal inhibitory concentration (MIC) of 0.25 µg/mL.
`N#Cc1ccc(/C=C/c2nc3ccc(OCc4cn(-c5cccc(Cl)c5)nn4)cc3c(=O)n2Cc2ccccc2)cc1`: the MIC (against Staphylococcus aureus; in the assay with Pseudomonas aeruginosa; in the assay on Escherichia coli; in the assay with Acinetobacter baumannii; in the assay on Klebsiella pneumoniae; in assay [1]) was greater than 64 µg/mL each time.
With `N#Cc1ccc(/C=C/c2nc3cccc(F)c3c(=O)n2-c2cccc(C#N)c2)cc1`, the MIC against Staphylococcus aureus was 32 µg/mL (≈ 81.6 µM); against Pseudomonas aeruginosa it was greater than 64 µg/mL; in the assay with Escherichia coli, greater than 64 µg/mL; against Acinetobacter baumannii it was greater than 64 µg/mL; against Klebsiella pneumoniae, greater than 64 µg/mL; in assay [1] it was greater than 64 µg/mL.
Regarding `Cc1nc2ccc(OCc3cn(Cc4ccc(Br)cc4)nn3)cc2c(=O)n1-c1ccccc1`, the minimum inhibitory concentration (MIC) in the assay on Staphylococcus aureus was 64 µg/mL (≈ 127 µM); against Pseudomonas aeruginosa, greater than 64 µg/mL; in the assay with Escherichia coli it was greater than 64 µg/mL; with Acinetobacter baumannii it was greater than 64 µg/mL; against Klebsiella pneumoniae, greater than 64 µg/mL; in assay [1], greater than 64 µg/mL.
Take `N#Cc1ccc(/C=C/c2nc3ccccc3c(=O)n2-c2cccnc2)cc1`: the minimum inhibitory concentration (MIC) is 64 µg/mL (≈ 183 µM) against Staphylococcus aureus; greater than 64 µg/mL against Pseudomonas aeruginosa; greater than 64 µg/mL in the assay on Escherichia coli; greater than 64 µg/mL in the assay on Acinetobacter baumannii; greater than 64 µg/mL in the assay on Klebsiella pneumoniae; greater than 64 µg/mL in assay [1].
For `CC(C)(C)c1ccc(-n2c(/C=C/c3ccc(C#N)cc3)nc3ncccc3c2=O)cc1`, the MIC (against Staphylococcus aureus; against Pseudomonas aeruginosa; with Escherichia coli; in the assay with Acinetobacter baumannii; with Klebsiella pneumoniae; in assay [1]) was greater than 64 µg/mL in each case.
For `C=CCOc1cccc(-n2c(/C=C/c3ccc(C#N)cc3)nc3cccc(F)c3c2=O)c1`, the MIC is 64 µg/mL (≈ 151 µM) against Staphylococcus aureus; greater than 64 µg/mL against Pseudomonas aeruginosa; greater than 64 µg/mL in the assay with Escherichia coli; greater than 64 µg/mL in the assay on Acinetobacter baumannii; greater than 64 µg/mL against Klebsiella pneumoniae; greater than 64 µg/mL in assay [1].
As to `COC(=O)Cn1c(/C=C/c2ccc(C#N)cc2)nc2ccccc2c1=O`, the minimal inhibitory concentration (MIC) (against Staphylococcus aureus; against Pseudomonas aeruginosa; against Escherichia coli; against Acinetobacter baumannii; in the assay on Klebsiella pneumoniae; in assay [1]) was greater than 64 µg/mL throughout.
For the molecule `Cc1nc2cc(-n3cc(COc4ccccc4)nn3)ccc2c(=O)n1-c1ccccc1`, the minimum inhibitory concentration (MIC) (against Staphylococcus aureus; against Pseudomonas aeruginosa; in the assay with Escherichia coli; in the assay with Acinetobacter baumannii; in the assay with Klebsiella pneumoniae; in assay [1]) was greater than 64 µg/mL each time.
Consider `Cc1cc(-n2cc(CNc3ccc4c(=O)n(-c5ccccc5)c(C)nc4c3)nn2)cc(C)c1C`, for which the minimal inhibitory concentration (MIC) (in the assay on Staphylococcus aureus; in the assay on Pseudomonas aeruginosa; in the assay with Escherichia coli; in the assay with Acinetobacter baumannii; against Klebsiella pneumoniae; in assay [1]) was greater than 64 µg/mL throughout.
Take `N#Cc1ccc(/C=C/c2nc3ncccc3c(=O)n2-c2ccc3c(c2)OCCO3)cc1`: the MIC (in the assay on Staphylococcus aureus; against Pseudomonas aeruginosa; against Escherichia coli; against Acinetobacter baumannii; against Klebsiella pneumoniae; in assay [1]) was greater than 64 µg/mL in each case.
As to `COc1ccc(-c2ccc3c(=O)n(-c4cccc(Cl)c4)c(C)nc3c2)cc1`, the MIC (against Staphylococcus aureus; with Pseudomonas aeruginosa; in the assay with Escherichia coli; in the assay with Acinetobacter baumannii; against Klebsiella pneumoniae; in assay [1]) was greater than 64 µg/mL each time.
For `N#Cc1ccc(/C=C/c2nc3ccccc3c(=O)n2Cc2ccc(Cl)c(Cl)c2)cc1`, the minimal inhibitory concentration (MIC) (against Staphylococcus aureus; in the assay with Pseudomonas aeruginosa; against Escherichia coli; with Acinetobacter baumannii; against Klebsiella pneumoniae; in assay [1]) was greater than 64 µg/mL throughout.
As to `CC(C)(O/N=C(\C(=O)N[C@@H]1C(=O)N2C(C(=O)[O-])=C(C[n+]3ccccc3)CS[C@H]12)c1csc(N)n1)C(=O)O` [CEFTAZIDIME], the minimum inhibitory concentration (MIC) in the assay on Staphylococcus aureus is 16 µg/mL (≈ 29.3 µM).
`CCCCCCCCCC(=O)N[C@@H](Cc1c[nH]c2ccccc12)C(=O)N[C@H](CC(N)=O)C(=O)N[C@@H](CC(=O)O)C(=O)N[C@@H]1C(=O)NCC(=O)N[C@@H](CCCN)C(=O)N[C@@H](CC(=O)O)C(=O)N[C@H](C)C(=O)N[C@@H](CC(=O)O)C(=O)NCC(=O)N[C@H](CO)C(=O)N[C@@H]([C@H](C)CC(=O)O)C(=O)N[C@@H](CC(=O)c2ccccc2N)C(=O)O[C@@H]1C`: in the assay with Staphylococcus aureus, it took 0.5 µg/mL (≈ 0.309 µM) to inhibit growth (MIC). This MIC is about 32-fold lower than that of the molecule before.
On to `NNC(=O)c1ccncc1` [ISONIAZID], for which, in assay [1], the MIC amounted to 0.03 µg/mL (≈ 0.219 µM).
`CO[C@H]1/C=C/O[C@@]2(C)Oc3c(C)c(O)c4c(O)c(c(/C=N/N5CCN(C)CC5)c(O)c4c3C2=O)NC(=O)/C(C)=C\C=C\[C@H](C)[C@H](O)[C@@H](C)[C@@H](O)[C@@H](C)[C@H](OC(C)=O)[C@@H]1C` [RIFAMPIN]: the minimal inhibitory concentration (MIC) in the assay with Staphylococcus aureus was found to be 0.015 µg/mL (≈ 0.0182 µM); in assay [1], 0.03 µg/mL (≈ 0.0365 µM).
